# Data as given in patent US4973465A, “Microcrystals comprising an active substance having an affinity for phospholipids, and at least one phospholipid, process of preparation” (priority 1986, dated 1990).
# Tested on: infected macrophages
# Experiment: in vitro activity relative to infected macrophages, microcrystals containing cholesterol
# Format: cell-based
compound,measurement,value
"C[C@@H]1[C@H](O)[C@@H](C)/C=C/C=C/C=C/C=C/C=C/C=C/C=C/[C@H](O[C@@H]2O[C@H](C)[C@@H](O)[C@H](N)[C@@H]2O)C[C@@H]2O[C@](O)(C[C@@H](O)C[C@@H](O)[C@H](O)CC[C@@H](O)C[C@@H](O)CC(=O)O[C@H]1C)C[C@H](O)[C@H]2C(=O)O [control amphotericin B, amphotericin B]",MIC on infected macrophages,0.4 µM
